Results: the supplement of paper PMC10307832

Columns and labels:
Experiment in all cases: relative viability (nuclei count vs DMSO), 5 days (fraction); higher = more cells survive
Avagacestat + Foretinib = compound: NC(=O)[C@@H](CCC(F)(F)F)N(Cc1ccc(-c2ncon2)cc1F)S(=O)(=O)c1ccc(Cl)cc1 [Avagacestat] + COc1cc2c(Oc3ccc(NC(=O)C4(C(=O)Nc5ccc(F)cc5)CC4)cc3F)ccnc2cc1OCCCN1CCOCC1 [Foretinib] (partner 0.25 µM)
In short: (§1)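 Nuclei were stained with Hoechst during a one-step fixation (final 0.05% Triton X-100, 1% formaldehyde, 1 ug/ml Hoechst) carried out 5 days after dosing, then counted on 4× images. The cells, lung cancer lines in 1536-well plates, had been dosed by pin tool the day after seeding with one drug alone or a fixed anchor-drug dose plus five library-drug doses (not always all listed) in √10 steps. Relative viability is the nuclei count in treated wells divided by that in vehicle wells, and each value is the median of duplicate plates.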

Avagacestat + AZD7762 = compound: NC(=O)[C@@H](CCC(F)(F)F)N(Cc1ccc(-c2ncon2)cc1F)S(=O)(=O)c1ccc(Cl)cc1 [Avagacestat] + NC(=O)Nc1cc(-c2cccc(F)c2)sc1C(=O)N[C@H]1CCCNC1 [AZD7762] (partner 0.2 µM)
In short: as §1

Avagacestat + Vorinostat = compound: NC(=O)[C@@H](CCC(F)(F)F)N(Cc1ccc(-c2ncon2)cc1F)S(=O)(=O)c1ccc(Cl)cc1 [Avagacestat] + O=C(CCCCCCC(=O)Nc1ccccc1)NO [Vorinostat] (partner 1 µM)
In short: as §1

Avagacestat + Pictilisib = compound: NC(=O)[C@@H](CCC(F)(F)F)N(Cc1ccc(-c2ncon2)cc1F)S(=O)(=O)c1ccc(Cl)cc1 [Avagacestat] + CS(=O)(=O)N1CCN(Cc2cc3nc(-c4cccc5[nH]ncc45)nc(N4CCOCC4)c3s2)CC1 [Pictilisib] (partner 1 µM)
In short: as §1

| Cell Line | relative viability (Avagacestat + Foretinib; first compound 0.08 µM) | relative viability (Avagacestat + Foretinib; first compound 0.253 µM) | relative viability (Avagacestat + Foretinib; first compound 0.8 µM) | relative viability (Avagacestat + Foretinib; first compound 2.53 µM) | relative viability (Avagacestat + Foretinib; first compound 8 µM) | relative viability (Avagacestat + AZD7762; first compound 0.08 µM) | relative viability (Avagacestat + AZD7762; first compound 0.253 µM) | relative viability (Avagacestat + AZD7762; first compound 0.8 µM) | relative viability (Avagacestat + AZD7762; first compound 2.53 µM) | relative viability (Avagacestat + AZD7762; first compound 8 µM) | relative viability (Avagacestat + Vorinostat; first compound 0.08 µM) | relative viability (Avagacestat + Vorinostat; first compound 0.253 µM) | relative viability (Avagacestat + Vorinostat; first compound 0.8 µM) | relative viability (Avagacestat + Vorinostat; first compound 2.53 µM) | relative viability (Avagacestat + Vorinostat; first compound 8 µM) | relative viability (Avagacestat + Pictilisib; first compound 0.08 µM) | relative viability (Avagacestat + Pictilisib; first compound 0.253 µM) | relative viability (Avagacestat + Pictilisib; first compound 0.8 µM) | relative viability (Avagacestat + Pictilisib; first compound 2.53 µM) | relative viability (Avagacestat + Pictilisib; first compound 8 µM) |
| --- | --- | --- | --- | --- | --- | --- | --- | --- | --- | --- | --- | --- | --- | --- | --- | --- | --- | --- | --- | --- |
| H3255 | 0.857 | 0.913 | 0.934 | 0.891 | 0.949 | 1.02 | 0.988 | 1.22 | 0.928 | 0.775 | 0.825 | 0.89 | 1.03 | 0.861 | 0.7 | 0.488 | 0.544 | 0.494 | 0.481 | 0.474 |
| NCI-H460 | 1.02 | 1.4 | 1.05 | 0.827 | 0.885 | 0.768 | 0.87 | 0.863 | 0.682 | 0.608 | 1.37 | 0.69 | 0.828 | 0.554 | 0.57 | 0.425 | 0.361 | 0.454 | 0.441 | 0.365 |
| LCLC-103H | 0.803 | 0.849 | 0.757 | 0.56 | 0.784 | 0.815 | 0.759 | 0.837 | 0.68 | 0.688 | 0.807 | 0.759 | 0.846 | 0.864 | 0.673 | 0.629 | 0.533 | 0.572 | 0.58 | 0.509 |
| A-427 | 1.37 | 1.18 | 1.12 | 1.11 | 1.08 | 0.752 | 0.753 | 0.703 | 0.619 | 0.68 | 0.958 | 0.945 | 1.03 | 0.946 | 0.952 | 0.72 | 0.832 | 0.745 | 0.763 | 0.817 |
| NCI-H441 | 0.975 | 1.29 | 1.04 | 1.14 | 0.956 | 1.02 | 1.23 | 1.37 | 1.35 | 0.877 | 0.991 | 0.932 | 0.899 | 0.761 | 0.595 | 0.54 | 0.515 | 0.496 | 0.442 | 0.415 |
| NCI-H1993 | 0.924 | 0.885 | 0.973 | 0.763 | 0.787 | 0.956 | 0.61 | 0.741 | 0.731 | 0.6 | 0.797 | 0.771 | 0.74 | 0.7 | 0.631 | 0.675 | 0.664 | 0.856 | 0.817 | 0.696 |
| NCI-H1666 | 1.32 | 1.15 | 1.16 | 1.07 | 1.07 | 1 | 0.88 | 1 | 0.93 | 0.876 | 1.17 | 1.23 | 1.28 | 1.12 | 1.09 | 0.416 | 0.445 | 0.499 | 0.48 | 0.49 |
| LCLC-97TM1 | 0.977 | 0.916 | 0.894 | 0.92 | 0.944 | 0.165 | 0.397 | 0.205 | 0.264 | 0.272 | 1.01 | 0.847 | 0.862 | 0.838 | 0.57 | 0.184 | 0.138 | 0.139 | 0.181 | 0.145 |
| NCI-H1755 | 0.951 | 0.921 | 1 | 0.847 | 0.849 | 0.425 | 0.672 | 0.4 | 0.38 | 0.473 | 0.884 | 0.782 | 0.891 | 0.666 | 0.791 | 0.487 | 0.445 | 0.445 | 0.428 | 0.367 |
| EPLC-272H | 0.72 | 0.662 | 0.825 | 0.602 | 0.661 | 0.268 | 0.233 | 0.244 | 0.169 | 0.156 | 0.413 | 0.318 | 0.539 | 0.367 | 0.321 | 0.325 | 0.273 | 0.346 | 0.371 | 0.241 |
| NCI-H2085 | 1.25 | 1.09 | 1.06 | 1.11 | 0.911 | 1.07 | 1.13 | 1.09 | 1.08 | 0.794 | 0.815 | 0.855 | 0.807 | 0.758 | 0.882 | 0.543 | 0.461 | 0.518 | 0.501 | 0.46 |
| BEN | 0.692 | 0.694 | 0.725 | 0.74 | 0.62 | 0.706 | 0.676 | 0.744 | 0.79 | 0.644 | 0.589 | 0.653 | 0.579 | 0.526 | 0.588 | 0.679 | 0.621 | 0.58 | 0.529 | 0.534 |
| ABC-1 | 1.16 | 1.06 | 1.15 | 1 | 1.06 | 0.864 | 1.02 | 0.895 | 0.94 | 0.664 | 1.22 | 1.14 | 1.71 | 1.15 | 1.02 | 1 | 0.753 | 0.861 | 0.679 | 0.711 |
| HCC-15 | 1.14 | 1.16 | 1.15 | 0.958 | 1.01 | 1.21 | 1.22 | 1.3 | 1.16 | 1.38 | 0.976 | 1.03 | 0.979 | 0.796 | 0.818 | 0.837 | 0.801 | 0.802 | 0.808 | 0.611 |
| NCI-H2170 | 1.02 | 1.12 | 0.988 | 0.899 | 1.01 | 0.968 | 1.14 | 0.928 | 0.793 | 0.877 | 1.35 | 0.995 | 0.821 | 0.876 | 0.617 | 0.329 | 0.309 | 0.295 | 0.278 | 0.326 |
| NCI-H358 | 0.7 | 0.866 | 0.737 | 0.598 | 0.665 | 0.516 | 0.595 | 0.57 | 0.481 | 0.461 | 0.911 | 0.762 | 0.733 | 0.557 | 0.679 | 0.356 | 0.337 | 0.493 | 0.349 | 0.385 |
